From PMC12123458, “Unraveling Small Molecule-Mediated Sirtuin 3 Activation at a Distinct Binding Site for Cardioprotective Therapies” (ACS Central Science, 2025)

Experiments:
[1] = system: LC3, p62, PINK1, Parkin in H9c2 cells; assay: Autophagy/mitophagy markers in H9c2 cells (Western blot, immunofluorescence); assay type: cell-based; settings: 24 h
Method: Proteomic analysis was conducted on H9c2 cells and murine cardiac tissues. Protein lysates were resolved via SDS-PAGE and transferred onto PVDF membranes. […] After washing, membranes were probed with secondary antibodies for 1 h at room temperature. Detection was facilitated by an ECL kit, with densitometry performed using ImageJ software to quantify protein expression, normalized against controls. The antibodies employed included: anti-SIRT3 (2627, Cell Signaling Technology), anti-acetylated lysine (9441, CST), anti-Ac.K68-MnSOD2 (ab137037, Abcam), anti-Ac.K122-MnSOD2 (ab214675, Abcam), anti-MnSOD2 (13141, CST), anti-LC3B (3868, CST), anti-p62 (8025, CST), anti-PINK1 (6946, CST), anti-Parkin (4211, CST), and anti-β-actin (ab8226, Abcam).

H9c2 cells = assay: Dox-induced cardiotoxicity model in H9c2 cells, MTT cell viability; assay type: cell-based; settings: for effect of co-treatment on the cardioprotective efficacy of SKLB-11A: Dox-treated H9c2 cells, cell viability; for viability at 10 µM: Rattus norvegicus, H9c2, 10 µM pretreatment 24 h, then 1 µM Dox 24 h, MTT, Model (Dox) = Dox alone, read-out: Cardiomyocyte survival rate at 10 uM (%)
Method: H9c2 cardiomyocytes were cultured in high-glucose DMEM supplemented with 10% FBS and 1% penicillin/streptomycin under a 5% CO2 atmosphere at 37 °C. Cells were seeded at 5 × 10^4 cells/mL in 96-well plates and treated with 1 μM Dox for 24 h. After Dox treatment, cell viability was quantified via MTT assay; 3-(4,5-dimethythiazol-2-yl)-2,5-diphenyltetrazolium bromide (MTT, 5 mg/mL) was applied for 4 h, followed by DMSO dissolution of formazan crystals. Additionally, cells were pretreated with 10 μM SKLB-11A for 24 h prior to 1 μM Dox exposure, and viability was similarly assessed using MTT.

SIRT3 = target: T1, SIRT3 (Homo sapiens, UniProt Q9NTG7); assay: Fluor de Lys (FDL) fluorimetric SIRT3 deacetylase activity assay; assay type: biochemical; settings: 100 µM, FDL deacetylation assay, compared to the control group, mean ± SD; for activity at 100 µM: 0.5 h, read-out: % effect @ 100 µM of SIRT3
T1 construct: purchased Enzo Life Sciences BML-AK557-0001
T1 sequence (Q9NTG7 1-399): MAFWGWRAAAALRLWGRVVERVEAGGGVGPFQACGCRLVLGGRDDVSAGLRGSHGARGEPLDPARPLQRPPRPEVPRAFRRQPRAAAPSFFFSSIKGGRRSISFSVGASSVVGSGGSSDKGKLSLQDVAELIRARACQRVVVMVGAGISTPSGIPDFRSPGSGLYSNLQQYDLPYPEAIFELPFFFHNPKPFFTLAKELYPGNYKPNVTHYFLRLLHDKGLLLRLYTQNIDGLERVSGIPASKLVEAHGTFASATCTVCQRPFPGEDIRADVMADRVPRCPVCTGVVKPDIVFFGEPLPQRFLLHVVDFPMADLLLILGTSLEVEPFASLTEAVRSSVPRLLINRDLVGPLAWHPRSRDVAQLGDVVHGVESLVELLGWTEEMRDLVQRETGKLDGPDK
Method: The SIRT3 activity was assessed using the Enzo Life Sciences kit (BML-AK557-0001) per the protocol provided. A 10 μM fluoro-acetylated p53 peptide and 500 μM NAD^+ were added to SIRT3 assay buffer, incubated with test compounds and 0.5 μg recombinant SIRT3 at 37 °C for 30 min. In the mass spectrometry (MS) assay, 5 μM hSirt3 was reacted with 0.25 mM peptide and 1.25 mM NAD^+, with or without 10 μM SKLB-11A in 2% DMSO, at 37 °C. Controls included 2% DMSO without SKLB-11A. The reaction was halted at defined intervals using 5 mM nicotinamide, and the mixture then underwent filtration and subjected to nano LC-MS/MS analysis. Acetylated Peptide: MnSOD-K122 ([…]-Ac).

Row | Compound | LC3-II and p62 (autophagic flux) [1] | effect of co-treatment on the cardioprotective efficacy of SKLB-11A (H9c2 cells) | viability at 10 µM (H9c2 cells) | activity at 100 µM (SIRT3) | % effect @ 100 µM of SIRT3 (SIRT3)
1 | c1cncc(-c2cn[nH]n2)c1 [3-TYP, reference compound] | reduced LC3-II localization | attenuated the efficacy of SKLB-11A |  |  | 
2 | COc1cccc2c1C(=O)c1c(O)c3c(c(O)c1C2=O)C[C@@](O)(C(=O)CO)C[C@@H]3O[C@H]1C[C@H](N)[C@H](O)[C@H](C)O1 [Dox, doxorubicin, reference compound] |  |  | 61.93 ± 0.51% |  | 
3 | COc1cc(-n2c(=S)[nH]c3ccccc3c2=O)c(Cl)cc1Cl [Mdivi-1, reference compound] |  | attenuated the cardioprotective effects of SKLB-11A |  |  | 
4 | COc1ccc(Cn2c(N)c(C#N)c3nc4ccccc4nc32)cc1 [SKLB-4A, 2-amino-1-(4-methoxybenzyl)-1H-pyrrolo[2,3-b]quinoxaline-3-carbonitrile] |  |  | 65.3 ± 4.54% | 118.2 ± 0.79% | 
5 | N#Cc1c(N)n(Cc2ccc(F)cc2)c2nc3ccccc3nc12 [SKLB-4B, 2-amino-1-(4-fluorobenzyl)-1H-pyrrolo[2,3-b]quinoxaline-3-carbonitrile] |  |  | 70.8 ± 3.03% | 130.6 ± 0.36% | significant increase in SIRT3 deacetylation activity
6 | N#Cc1c(N)n(Cc2ccc(Br)cc2)c2nc3ccccc3nc12 [SKLB-4C, 2-amino-1-(4-bromobenzyl)-1H-pyrrolo[2,3-b]quinoxaline-3-carbonitrile] |  |  | 68.25 ± 0.51% | 126.4 ± 0.81% | 
7 | COc1cccc(-n2c(N)c(C#N)c3nc4ccccc4nc32)c1 [SKLB-4D, 2-amino-1-(3-methoxyphenyl)-1H-pyrrolo[2,3-b]quinoxaline-3-carbonitrile] |  |  | 64.4 ± 3.28% | 103.1 ± 1.02% | 
8 | COc1ccc(-n2c(N)c(C#N)c3nc4ccccc4nc32)cc1 [SKLB-4E, 2-amino-1-(4-methoxyphenyl)-1H-pyrrolo[2,3-b]quinoxaline-3-carbonitrile] |  |  | 65.9 ± 2.41% | 110.4 ± 0.95% | 
9 | N#Cc1c(N)n(-c2ccccc2F)c2nc3ccccc3nc12 [SKLB-4F, 2-amino-1-(2-fluorophenyl)-1H-pyrrolo[2,3-b]quinoxaline-3-carbonitrile] |  |  | 65.17 ± 0.38% | 106 ± 1.96% | 
10 | Nc1c(C(=O)O)c2nc3ccccc3nc2n1Cc1ccc(F)cc1 [SKLB-5A, 2-amino-1-(4-fluorobenzyl)-1H-pyrrolo[2,3-b]quinoxaline-3-carboxylic acid] |  |  | 75.5 ± 2.69% | 154 ± 2.69% | 
11 | CC(C)(C)OC(=O)Nc1c(C(=O)O)c2nc3ccccc3nc2n1Cc1ccc(F)cc1 [SKLB-7A, 2-((tert-butoxycarbonyl)amino)-1-(4-fluorobenzyl)-1H-pyrrolo[2,3-b]quinoxaline-3-carboxylic acid] |  |  | 66.1 ± 0.8% | 109.3 ± 0.71% | significantly reduced SIRT3 deacetylation activity
12 | CCOC(=O)c1c(N)n(Cc2ccc(F)cc2)c2nc3ccccc3nc12 [SKLB-11B, Ethyl 2-amino-1-(4-fluorobenzyl)-1H-pyrrolo[2,3-b]quinoxaline-3-carboxylate] |  |  | 77 ± 1.96% | 167.4 ± 1.13% | maintained or enhanced the activity
13 | CC(C)OC(=O)c1c(N)n(Cc2ccc(F)cc2)c2nc3ccccc3nc12 [SKLB-11C, Isopropyl 2-amino-1-(4-fluorobenzyl)-1H-pyrrolo[2,3-b]quinoxaline-3-carboxylate] |  |  | 70.2 ± 1.89% | 124.2 ± 0.84% | 
14 | CC(C)(C)OC(=O)c1c(N)n(Cc2ccc(F)cc2)c2nc3ccccc3nc12 [SKLB-11D, Tert-butyl 2-amino-1-(4-fluorobenzyl)-1H-pyrrolo[2,3-b]quinoxaline-3-carboxylate] |  |  | 74.3 ± 1.7% | 148 ± 3.07% | maintained or enhanced the activity
15 | Nc1c(C(=O)Oc2ccccc2)c2nc3ccccc3nc2n1Cc1ccc(F)cc1 [SKLB-11E, Phenyl 2-amino-1-(4-fluorobenzyl)-1H-pyrrolo[2,3-b]quinoxaline-3-carboxylate] |  |  | 71.3 ± 4.34% | 130.6 ± 1.27% | 
16 | CC(C)(C)OC(=O)c1c(N)n(Cc2ccccc2)c2nc3ccccc3nc12 [SKLB-11F, Tert-butyl 2-amino-1-benzyl-1H-pyrrolo[2,3-b]quinoxaline-3-carboxylate] |  |  | 69 ± 1.22% | 122.7 ± 0.59% | 
17 | Cc1ccc(Cn2c(N)c(C(=O)OC(C)(C)C)c3nc4ccccc4nc32)cc1 [SKLB-11G, Tert-butyl 2-amino-1-(4-methylbenzyl)-1H-pyrrolo[2,3-b]quinoxaline-3-carboxylate] |  |  | 63.93 ± 0.62% | 107 ± 1.42% | 
18 | COc1ccc(Cn2c(N)c(C(=O)OC(C)(C)C)c3nc4ccccc4nc32)cc1 [SKLB-11H, Tert-butyl 2-amino-1-(4-methoxybenzyl)-1H-pyrrolo[2,3-b]quinoxaline-3-carboxylate] |  |  | 68.7 ± 4.61% | 125.7 ± 0.91% | 
19 | NC(=O)c1c(N)n(Cc2ccc(F)cc2)c2nc3ccccc3nc12 [SKLB-11I, 2-amino-1-(4-fluorobenzyl)-1H-pyrrolo[2,3-b]quinoxaline-3-carboxamide] |  |  | 70.8 ± 3.76% | 135 ± 2.43% | 
20 | CNC(=O)c1c(N)n(Cc2ccc(F)cc2)c2nc3ccccc3nc12 [SKLB-11J, 2-amino-1-(4-fluorobenzyl)-N-methyl-1H-pyrrolo[2,3-b]quinoxaline-3-carboxamide] |  |  | 72.4 ± 2.21% | 150 ± 1.75% | 
21 | CCNC(=O)c1c(N)n(Cc2ccc(F)cc2)c2nc3ccccc3nc12 [SKLB-11K, 2-amino-N-ethyl-1-(4-fluorobenzyl)-1H-pyrrolo[2,3-b]quinoxaline-3-carboxamide] |  |  | 71.5 ± 2.09% | 144.3 ± 0.82% | 
22 | CCCCNC(=O)c1c(N)n(Cc2ccc(F)cc2)c2nc3ccccc3nc12 [SKLB-11L, 2-amino-N-butyl-1-(4-fluorobenzyl)-1H-pyrrolo[2,3-b]quinoxaline-3-carboxamide] |  |  | 67.1 ± 1.6% | 123.6 ± 0.95% | 
23 | Nc1c(C(=O)NC2CC2)c2nc3ccccc3nc2n1Cc1ccc(F)cc1 [SKLB-11M, 2-amino-N-cyclopropyl-1-(4-fluorobenzyl)-1H-pyrrolo[2,3-b]quinoxaline-3-carboxamide] |  |  | 64.5 ± 0.87% | 104 ± 1.75% | 
24 | CCCCCNC(=O)c1c(N)n(Cc2ccccc2)c2nc3ccccc3nc12 [SKLB-11N, 2-amino-1-benzyl-N-pentyl-1H-pyrrolo[2,3-b]quinoxaline-3-carboxamide] |  |  | 66.3 ± 4.52% | 119 ± 3.3% | 
25 | CCCCCNC(=O)c1c(N)n(Cc2ccc(Br)cc2)c2nc3ccccc3nc12 [SKLB-11O, 2-amino-1-(4-bromobenzyl)-N-pentyl-1H-pyrrolo[2,3-b]quinoxaline-3-carboxamide] |  |  | 69.2 ± 1.35% | 126 ± 1.32% | 
26 | CCCCCNC(=O)c1c(N)n(Cc2cccc(Br)c2)c2nc3ccccc3nc12 [SKLB-11P, 2-amino-1-(3-bromobenzyl)-N-pentyl-1H-pyrrolo[2,3-b]quinoxaline-3-carboxamide] |  |  | 65.8 ± 4.18% | 116.2 ± 0.57% | 
27 | CCCCCNC(=O)c1c(N)n(Cc2cccc(Cl)c2)c2nc3ccccc3nc12 [SKLB-11Q, 2-amino-1-(3-chlorobenzyl)-N-pentyl-1H-pyrrolo[2,3-b]quinoxaline-3-carboxamide] |  |  | 66.5 ± 1.19% | 118 ± 0.63% | 
